Experimental data taken from patent US9771351B2, “Wnt signaling inhibitor” (KYOWA HAKKO KIRIN CO., LTD., priority 2013, dated 2017).
Like-named read-outs stand apart in the source and are kept apart here.

How the values were obtained:
[1] = tested on: T-cell factor (TCF)-luciferase reporter using Wnt pathway as index; test: Inhibitory activity against TCF-luciferase reporter using Wnt pathway as index (DLD-1/TCF-Luc cells); type: cell-based, human; details: for inhibition at 1 µM: Homo sapiens, read-out: Inhibition ratio (%) at 1 μmol/L
Experimental: Test Example 1: Inhibitory Activity Against T-Cell Factor (TCF)-Luciferase Reporter Using Wnt Pathway as Index
The inhibitory activity of test compounds against Wnt pathway was evaluated by the following method.
A human colorectal adenocarcinoma cell line DLD-1 (Japanese Collection of Research Bioresources) was cultured in RPMI-1640 medium (Gibco/Life Technologies, Inc.) containing 10% fetal bovine serum (Gibco/Life Technologies, Inc.), 10 mmol/L of a 4-(2-hydroxyethyl)-1-piperazineethanesulfonic acid (HEPES) buffer solution (Gibco/Life Technologies, Inc.), 1 mmol/L of a sodium pyruvate solution (Gibco/Life Technologies, Inc.), 4.5 g/L of a D-(+)-glucose solution (Sigma-Aldrich, Inc.), 100 units/mL penicillin (Gibco/Life Technologies, Inc.) and 100 μg/mL of streptomycin (Gibco/Life Technologies, Inc.) under the conditions of 37° C. and 5% carbon dioxide gas. The DLD-1 cells were seeded in a 10 cm dish, and 20 μg of a luciferase gene plasmid pGL4.27 having a TCF responsive sequence inserted therein was transfected into the cells using 10 μL of Attractene (Qiagen, Inc.) according to the protocol attached to the product. A stably expressing cell line (DLD-1/TCF-Luc) was selected using […] of hygromycin B (Wako Pure Chemical Industries Ltd.). The DLD-1/TCF-Luc cells were detached with trypsin and seeded in a 384-well plate, and a test compound was added at different concentrations. After 18 hours, the luciferase activity was measured using Steady-Glo™ Luciferase Assay System (Promega, Inc.).
The inhibition ratio was obtained according to the following formula 1. The inhibition ratio (%) of the compound of the present invention at 1 μmol/L against the TCF-luciferase reporter using the Wnt pathway as an index is shown in Table 6. [Math. 1] Inhibition ratio (%)=100−{(luciferase activity when test compound was added)−(luciferase activity of blank)}/{(luciferase activity of control)−(luciferase activity of blank)}×100 Formula 1

tankyrase-2 = target: T1, tankyrase-2 (Homo sapiens, UniProt Q9H2K2); test: Tankyrase-2 enzyme inhibition test (Tankyrase-2 Chemiluminescent Assay Kit); type: biochemical; details: autoribosylation of GST-tankyrase-2 fusion protein, chemiluminescence
T1 construct: purchased BPS Bioscience, Inc. 80566
T1 sequence (Q9H2K2 1-1166): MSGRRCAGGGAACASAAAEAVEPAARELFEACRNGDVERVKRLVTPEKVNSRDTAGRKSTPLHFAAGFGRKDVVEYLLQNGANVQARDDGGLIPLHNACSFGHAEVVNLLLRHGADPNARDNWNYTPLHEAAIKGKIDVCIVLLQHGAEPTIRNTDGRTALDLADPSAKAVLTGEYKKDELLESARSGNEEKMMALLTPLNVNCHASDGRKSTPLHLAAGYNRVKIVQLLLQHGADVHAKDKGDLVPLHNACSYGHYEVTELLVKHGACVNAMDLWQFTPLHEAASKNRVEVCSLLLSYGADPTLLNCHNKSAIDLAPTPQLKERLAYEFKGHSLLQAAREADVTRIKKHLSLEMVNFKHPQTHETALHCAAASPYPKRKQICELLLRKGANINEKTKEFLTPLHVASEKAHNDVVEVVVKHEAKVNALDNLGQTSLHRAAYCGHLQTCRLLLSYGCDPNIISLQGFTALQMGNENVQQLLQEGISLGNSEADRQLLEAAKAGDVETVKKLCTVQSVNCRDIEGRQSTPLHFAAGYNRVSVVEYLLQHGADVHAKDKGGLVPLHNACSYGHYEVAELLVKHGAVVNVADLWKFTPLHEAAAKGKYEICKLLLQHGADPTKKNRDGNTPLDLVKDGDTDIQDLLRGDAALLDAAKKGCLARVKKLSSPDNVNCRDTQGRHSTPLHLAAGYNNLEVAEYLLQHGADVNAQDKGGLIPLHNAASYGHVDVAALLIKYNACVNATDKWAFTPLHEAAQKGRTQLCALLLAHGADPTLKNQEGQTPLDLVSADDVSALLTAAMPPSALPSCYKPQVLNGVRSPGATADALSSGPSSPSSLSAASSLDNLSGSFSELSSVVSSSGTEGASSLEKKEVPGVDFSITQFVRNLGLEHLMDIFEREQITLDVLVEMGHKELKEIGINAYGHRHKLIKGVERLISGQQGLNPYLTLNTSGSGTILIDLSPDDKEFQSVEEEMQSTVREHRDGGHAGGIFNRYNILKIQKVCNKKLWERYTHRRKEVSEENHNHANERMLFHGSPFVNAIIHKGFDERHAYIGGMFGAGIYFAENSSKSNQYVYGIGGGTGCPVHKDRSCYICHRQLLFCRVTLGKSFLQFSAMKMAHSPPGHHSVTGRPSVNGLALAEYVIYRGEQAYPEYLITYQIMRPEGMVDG
Experimental: Test Example 2: Tankyrase-2 Enzyme Inhibition Test
The enzyme activity of tankyrase-2 was evaluated using Tankyrase-2 Chemiluminescent Assay Kit (BPS Bioscience, Inc., Catalog No. 80566). The Tankyrase-2 Chemiluminescent Assay Kit is a kit for evaluating the enzyme activity of tankyrase-2 using autoribosylation of glutathione-S-transferase (GST)-tankyrase-2 fusion protein as an index. All the experimental materials except for PBS (PBST) buffer containing phosphate-buffered saline (PBS) and 0.05% Tween 20 are all included in the kit. The GST-tankyrase-2 enzyme diluted with 50 μL of 1× tankyrase buffer was added to the wells of a 96-well plate coated with glutathione. After the plate was left to stand overnight at 4° C., the plate was washed 3 times with the PBST buffer. 150 μL of blocking buffer was added thereto, and the plate was left to stand at room temperature for 30 minutes to block the wells. The plate was washed 3 times with the PBST buffer. Before the ribosylation reaction, an assay mixture containing a biotinylated substrate and a test compound diluted with 1× tankyrase buffer were mixed, whereby a reaction mixture was prepared. In order to start the ribosylation reaction, 50 μL of the reaction mixture was added to the wells. In a blank well, 1× tankyrase buffer was added in place of the reaction mixture containing a biotinylated substrate. The plate was left to stand at 30° C. for 1 hour. After the reaction, the plate was washed 3 times with the PBST buffer. Streptavidin-horseradish peroxidase (HRP) was diluted to 50-fold with the blocking buffer. The diluted streptavidin-HRP was added to the wells, and the plate was left to stand at room temperature for 30 minutes. The plate was washed 3 times with the PBST buffer. Immediately before use, 50 μL of the HRP chemiluminescent substrate A and 50 μL of the HRP chemiluminescent substrate B were mixed and 100 μL of the resulting mixture was added to the wells. The chemiluminescence was measured using a chemiluminescence measuring apparatus. The inhibition ratio was obtained according to the following formula 2. [Math. 2] Inhibition ratio (%)=100−{(chemiluminescence intensity when test compound was added)−(chemiluminescence intensity of blank)}/{(chemiluminescence intensity of control)−(chemiluminescence intensity of blank)}×100 Formula 2

[2] = 1 μmol/L, DLD-1/TCF-Luc cells, luciferase activity after 18 hours

Structure (SMILES) | inhibition at 1 µM ([1]; DLD-1, 18 h) [%] | Inhibition ratio (%) at 1 μmol/L (tankyrase-2) [%] | inhibition at 1 µM [1, 2] [%] | Inhibition ratio (%) at 1 μmol/L [1, 2] [%]
N#Cc1cc(N2C(=O)N(CC3CCN(c4cccc5n[nH]c(=O)n45)CC3)Cc3ccccc32)ccn1 [Compound 38, 4-(2-Oxo-3-{[1-(3-oxo-2,3-dihydro-[1,2,4]triazolo[4,3-a]pyridin-5-yl)piperidin-4-yl]methyl}-3,4-dihydroquinazolin-1(2H)-yl)picolinonitrile] | 89 | 94 | – | –
N#Cc1cc(N2C(=O)N(CC3CCN(c4ncnc5c4NC(=O)CO5)CC3)Cc3ccccc32)ccn1 [Compound 35, 4-(2-Oxo-3-{[1-(6-oxo-6,7-dihydro-5H-pyrimido[4,5-b][1,4]oxazin-4-yl)piperidin-4-yl]methyl}-3,4-dihydroquinazolin-1(2H)-yl)picolinonitrile] | 79 | 88 | – | –
N#Cc1cccc(N2C(=O)N(CC3CCN(c4ncnc5c[n+]([O-])ccc45)CC3)Cc3ccccc32)c1 [Compound 29, 4-(4-{[1-(3-Cyanophenyl)-2-oxo-1,2-dihydroquinazolin-3(4H)-yl]methyl}piperidin-1-yl)pyrido[3,4-d]pyrimidine-7-oxide] | 74 | 87 | – | –
N#Cc1cc(N2C(=O)N(CC3CCN(c4nccc5nc[nH]c(=O)c45)CC3)Cc3cccnc32)ccc1F [Compound 47, 2-Fluoro-5-(2-oxo-3-{[1-(4-oxo-3,4-dihydropyrido[4,3-d]pyrimidin-5-yl)piperidin-4-yl]methyl}-3,4-dihydropyrido[2,3-d]pyrimidin-1(2H)-yl)benzonitrile] | – | 80 | 82 | –
N#Cc1cccc(N2C(=O)N(CC3CCN(c4ncnc5cc(C(=O)O)ccc45)CC3)Cc3ccccc32)c1 [Compound 25, 4-(4-{[1-(3-Cyanophenyl)-2-oxo-1,2-dihydroquinazolin-3(4H)-yl]methyl}piperidin-1-yl)quinazoline-7-carboxylic acid] | 86 | 81 | – | –
N#Cc1cc(N2C(=O)N(CC3CCN(c4ncnc5[nH]c(=O)[nH]c45)CC3)Cc3ccccc32)ccn1 [Compound 36, 4-(2-Oxo-1-{[1-(8-oxo-8,9-dihydro-7H-purin-6-yl)piperidin-4-yl]methyl}-3,4-dihydroquinazolin-1(2H)-yl)picolinonitrile] | – | 88 | – | 79
COc1cc2ncnc(N3CCC(O)(CN4Cc5ccccc5N(c5ccnc(C#N)c5)C4=O)CC3)c2cc1OC [Compound 18, 4-(3-{[1-(6,7-Dimethoxyquinazolin-4-yl)-4-hydroxypiperidin-4-yl]methyl}-2-oxo-3,4-dihydroquinazolin-1(2H)-yl)picolinonitrile] | – | 79 | 80 | –
COc1cc2ncnc(N3CCC(CN4Cc5ccccc5N(c5ccc(C(=O)O)c(C#N)c5)C4=O)CC3)c2cc1OC [Compound 15, 2-Cyano-4-(3-{[1-(6,7-dimethoxyquinazolin-4-yl)piperidin-4-yl]methyl}-2-oxo-3,4-dihydroquinazolin-1(2H)-yl)benzoic acid] | – | 92 | 84 | –
N#Cc1cc(N2C(=O)N(CC3CCN(c4ncnc5cc(N)cnc45)CC3)Cc3ccccc32)ccn1 [Compound 41, 4-(3-{[1-(7-Aminopyrido[3,2-d]pyrimidin-4-yl)piperidin-4-yl]methyl}-2-oxo-3,4-dihydroquinazolin-1(2H)-yl)picolinonitrile] | 81 | 92 | – | –
COc1cc2ncnc(N3CCC(CN4Cc5nccnc5N(c5ccnc(C#N)c5)C4=O)CC3)c2cc1OC [Compound 24, 4-(3-{[1-(6,7-Dimethoxyquinazolin-4-yl)piperidin-4-yl]methyl}-2-oxo-3,4-dihydropteridin-1(2H)-yl)picolinonitrile] | – | 92 | 86 | –
COc1cc2ncnc(N3CCC(CN4Cc5ccccc5N(c5cccc([N+](=O)[O-])c5)C4=O)CC3)c2cc1OC [Compound 8, 3-{[1-(6,7-Dimethoxyquinazolin-4-yl)piperidin-4-yl]methyl}-1-(3-nitrophenyl)-3,4-dihydroquinazolin-2(1H)-one] | 73 | 90 | – | –
COc1cc2ncnc(N3CCC(CN4Cc5ccccc5N(c5cccc(S(N)(=O)=O)c5)C4=O)CC3)c2cc1OC [Compound 13, 3-(3-{[1-(6,7-Dimethoxyquinazolin-4-yl)piperidin-4-yl]methyl}-2-oxo-3,4-dihydroquinazolin-1(2H)-yl)benzenesulfonamide] | – | 89 | 80 | –
CC(=O)N1CCc2ncnc(N3CCC(CN4Cc5ccccc5N(c5ccc(F)c(C#N)c5)C4=O)CC3)c2C1 [Compound 44, 5-(3-{[1-(6-Acetyl-5,6,7,8-tetrahydropyrido[4,3-d]pyrimidin-4-yl)piperidin-4-yl]methyl}-2-oxo-3,4-dihydroquinazolin-1(2H)-yl)-2-fluorobenzonitrile] | 82 | 93 | – | –
COc1cc2ncnc(N3CCC(CN4Cc5ccccc5N(c5c[nH]c(=O)c(C#N)c5)C4=O)CC3)c2cc1OC [Compound 12, 5-(3-{[1-(6,7-Dimethoxyquinazolin-4-yl)piperidin-4-yl]methyl}-2-oxo-3,4-dihydroquinazolin-1(2H)-yl)-2-oxo-1,2-dihydropyridine-3-carbonitrile] | – | 88 | 80 | –
